Consider eight molecules from patent publication US20240074473A1, “METHOD FOR INDUCING HYPERTROPHIC MUSCLE FIBERS FOR INDUSTRIAL MEAT PRODUCTION” (Yeda Research and Development Co. Ltd., priority 2021, published 2024).

Where two headings read alike, the source gives them in different places.

Data set [1] relates to primary mouse myoblasts. In words: Fusion index of primary mouse myoblasts (MyHC immunostaining). Type of data set: cell-based. The protocol: (§1) Isolation of and treatment of primary myoblasts. Primary mouse myoblasts were isolated from gastrocnemius muscle using trypsin-tissue dissociation. Briefly, muscle tissues were incubated in Trypsin B (0.25%, Biological Industries) and subjected to mechanical dissociation with a serological pipet. Supernatants were strained and centrifuged. Pellets were grown resuspended in BioAmf-2 media (Biological Industries, Israel) and plated on 10% Matrigel (BD Biosciences)-coated plates at 37° and 5% CO2. For all in vitro experiments, proliferation medium was Bio-Amf2 (Biological Industries, Israel) and Differentiation medium (DM) was DMEM 2% Horse Serum (HS) with 1% Pen/Strep. For fusion assays, cells were trypsinized with Trypsin C (0.05%, Biological Industries) and subjected to two rounds of preplating on uncoated plates to reduce the number of fibroblasts. Cells were plated at a density of 8×10^3 per well in 10% Matrigel-coated 96-well plates in proliferation medium for 24 hours. The following day, proliferation media was replaced either with proliferation media or with DM containing DMSO (Ctrl) or 1 μM ERK1/2 inhibitor (ERKi; SCH772984, Cayman Chemicals), […] RXR antagonist (RXRi; HX-531, Cayman Chemicals), […] Ryanodine receptor antagonist (RYRi; Dantrolene, Cayman Chemicals), 5 μM CaMKII inhibitor (CaMKIIi; KN93, Cayman Chemicals), or with DM for controls.
(§2) Immunofluorescence staining. First passage primary myoblasts isolated from various strains (indicated in figure legends) were plated in 96-well plates or chamber slides and treated as previously described. The cells were fixed with ice cold 4% PFA in PBS for 10 minutes, permeabilized with 0.5% Triton X-100 in PBS for 6 minutes, and blocked in PBS with 0.025% tween, 10% normal horse serum and 10% normal goat serum for 1 hour at room temperature. Primary antibody incubation was done in blocking buffer overnight at 4 degrees, with the following antibodies: Myosin Heavy Chain (MyHC, MF20, DSHB hybridoma supernatant 1:10, or MY-32 ABCAM ab51263 1:400), Myogenin (MYOG sc-13137 SCBT 1:200), pHistone 3 (PH3, ab47297 ABCAM 1:1000), Ki-67 (Cell Marque #275R), RYR (ab2868 ABCAM 1:100), and pCaMKII (SIGMA SAB4504356 1:100). Cells were washed 3 times in PBS with 0.025% tween and then incubated with appropriate secondary antibodies in PBS 1 hour. Where indicated, nuclei were either labeled with DAPI (SIGMA D9542, 5 ug/ml) or Hoechst 33342 (Thermo scientific #62249, 1:2000). Fixed cells at 24 hours post treatment with indicated inhibitors were imaged using the Nikon Eclipse Ti2 microscope (further described in microscopy section). All analysis was performed on at least 1000 nuclei. […]
Quantification of fusion index. Following immunostaining and imaging, a fusion index was quantified by manually identifying nuclei found in a MyHC positive cell with at least 2 nuclei. Then the values were expressed as a percentage of the total nuclei per field. Briefly, in Figures where fusion index is stratified into subgroups of fiber size, the nuclei number in MyHC positive cell was manually quantified in a given field and stratified into groups of mononucleated, bi-nucleated myotubes, myotubes with 3-10 nuclei and myotubes with greater than 10 nuclei. […] Fields were analyzed hourly, and nuclei per cell was quantified and stratified into mononucleated, bi-nucleated, tri-nucleated and cells with ≥4 nuclei.

The subject of data set [2] is primary mouse myoblasts. In words: MYOG positive nuclei in primary mouse myoblasts (immunofluorescence). Type of data set: cell-based. The conditions noted are these: co-treatment with 1 μM ERKi, 24 hrs; HX531 20 uM, Dantrolene 50 uM, BAPTA-AM 10 uM, KN93 5 uM. The protocol: as §1
Immunofluorescence staining. First passage primary myoblasts isolated from various strains (indicated in figure legends) were plated in 96-well plates or chamber slides and treated as previously described. The cells were fixed with ice cold 4% PFA in PBS for 10 minutes, permeabilized with 0.5% Triton X-100 in PBS for 6 minutes, and blocked in PBS with 0.025% tween, 10% normal horse serum and 10% normal goat serum for 1 hour at room temperature. Primary antibody incubation was done in blocking buffer overnight at 4 degrees, with the following antibodies: Myosin Heavy Chain (MyHC, MF20, DSHB hybridoma supernatant 1:10, or MY-32 ABCAM ab51263 1:400), Myogenin (MYOG sc-13137 SCBT 1:200), pHistone 3 (PH3, ab47297 ABCAM 1:1000), Ki-67 (Cell Marque #275R), RYR (ab2868 ABCAM 1:100), and pCaMKII (SIGMA SAB4504356 1:100). Cells were washed 3 times in PBS with 0.025% tween and then incubated with appropriate secondary antibodies in PBS 1 hour. Where indicated, nuclei were either labeled with DAPI (SIGMA D9542, 5 ug/ml) or Hoechst 33342 (Thermo scientific #62249, 1:2000). Fixed cells at 24 hours post treatment with indicated inhibitors were imaged using the Nikon Eclipse Ti2 microscope (further described in microscopy section). All analysis was performed on at least 1000 nuclei. For fixed cells following the timecourse with ERKi or DM (FIG. 1B), images were captured with an inverted Olympus IX83 microscope (further details in microscopy section). All imaging analysis were performed on at least 1000 cells.

Data set [3] can be described thus: Maximum estimated dietary exposure to media ingredients per 100 g serving. The conditions noted are these: assumption of complete transfer of media components to the finished product on a wt/wt basis.
Data set [4] is described as follows: Margin of estimated intake below NOAEL of rat toxicity study. The format is in vivo. From the text: (§3) Category 2: These cell culture media components are common dietary nutrients and are anticipated to have GRAS status for food use or be permitted by regulation for addition to food. Examples of such compounds include most of the inorganic salts and macronutrients that are present within the cell culture media. […] Majority of nutrients present within the poultry cell-based meat may be readily measured using common validated methods for food composition testing. Batch analyses of multiple lots of the finished product may be obtained to validate the above assumptions. In some instances, consideration of established safe levels (e.g., ADI, UL) derived from a relevant authoritative body (e.g., U.S. FDA, EFSA, JECFA, FSANZ, U.S. EPA) may be leveraged to support safety. If comparisons of anticipated dietary intakes relative to an authoritative reference intake value is used, consideration of additive intakes from all dietary sources may be considered. In the absence of an authoritative reference intake value, published NOAELs from animal toxicology studies may be used to evaluate safety using standard scientific procedures for food safety evaluation. A margin of exposure (MoE) of 100-fold or greater between the NOAEL and estimated dietary intakes from food exposures is typically considered adequate to support safety. in situations where the MoE is <100-fold, additional measures for further reduction of the media component may be necessary, or further characterization of intraspecies/interspecies differences in metabolism may be necessary. These situations also require careful consideration of the regulatory status on a case-by basis (e.g., premarket approval as a food additive or GRAS evaluation required).

Data set [5] in a line: Risk categorization of cell culture media ingredients.
Excerpt: Category 1: These cell culture media components are food ingredients/additives that are GRAS or permitted by federal regulation without limitation on use. Exemplary compounds in this category include innocuous ingredients such as sugars, pH buffers, water soluble vitamins, and common antioxidants such as tocopherols.
as §3
For example, situations where the compound is not detectable in finished product or is present at equivalent levels in comparator foods, compounds that are thermo-labile and will be digested during cooking, and/or compounds that are expected to be digested to innocuous compounds following ingestion. Examples of compounds meeting the aforementioned conditions would include recombinant growth factors and serum components. For Category 3 substances a final consideration in the safety assessment process may involve hazard characterization of the potential for a substance to produce toxic biological effects outside of the endpoints measured in a sub-chronic rat toxicity study. Substances with biological activity may require additional hazard characterization related to reproductive and developmental toxicity, or immunotoxicity. Considerations for allergenicity, biological effects in humans (e.g., effects on blood pressure), and synergistic effects with other media components also may be evaluated. […] Examples of category 3 components include recombinant proteins and animal serum.

Data set [6] concerns primary mouse myoblasts. Put plainly: Proliferation markers KI-67 and pH3 staining in primary mouse myoblasts. The format is cell-based. The conditions noted are these: co-treatment of ERKi with CaMKIIi. How it is done:
as §2

For data set [7], the system named is primary mouse myoblasts. In words: Cell motility of myoblasts. The conditions noted are these: co-treatment with ERKi and CaMKIIi. Type of data set: cell-based.
For data set [8], the system named is primary mouse myoblasts. In words: qRT-PCR gene expression in primary mouse myoblasts. Type of data set: cell-based. How it is done:
Quantitative real-time PCR (qRT-PCR). Total RNA was isolated using Tri-Reagent (SIGMA) according to the manufacturer's instructions. cDNA was synthesized with the High Capacity cDNA Reverse Transcription Kit (Applied Biosystems according to the manufacturer's instructions. qRT-PCR was performed with SYBR green PCR Master Mix (Applied Biosystems) using the StepOnePlus Real-time PCR system (Applied Biosystems). Values for specific genes were normalize to either Gapdh or Hprt housekeeping control as indicated in Figure legend. Expression was calculated using the ddCT method.
First passage primary mouse derived myoblast were seeded in proliferation media, in equal number in 12-well tissue culture plates that were precoated with 10% Matrigel solution. Following 24 hours to allow for complete attachment, culture media was washed and replaced either with fresh proliferation media (PM), PM supplemented with 1 uM SCH 772984 (ERKi) or differentiation media (DM). After 24 hrs, cells were lysed and RNA was collected. Gene expression analysis was carried out using SYBR green qRT-PCR analysis.

The test system of the next data set is CaMKII. Put plainly: Western blot of CaMKII activation (p-CaMKII T287) in myoblasts. Type of data set: cell-based, mouse. The settings on record: co-treatment with ERKi and 5 uM KN93, 24 hrs. The protocol: Western Blot analysis. Cultured cells and whole tissues extracts were prepared with RIPA buffer supplemented with protease inhibitor cocktail (SIGMA P8340), and phosphatase inhibitor cocktails (SIGMA P5726 and P0044). Western blotting was performed using the Mini-PROTEAN Tetra Cell electrophoresis system, and transferred to PVDF membranes. The following primary antibodies concentrations were used p-CAMKII 1:1000 (Abcam ab182647), CaMKII 1:1000 (Cell Signaling 3362), GAPDH 1:10,000 (Abcam ab181602), p-ERK1/2 1:20,000 (SIGMA M9692), ERK1/2 1:40,000 (SIGMA), Myosin Heavy Chain (MF-20 DSHB hybridoma supernatant 1:100) Horseradish peroxidase conjugated secondary anti-mouse, anti-rabbit or anti-goat was used to detect proteins (Jackson Immunology). Western blots were imaged using the Chemidoc Multiplex system (Bio-rad).
(In general: A western blot detects proteins with antibodies after separation by electrophoresis.)

The mark [9] stands for this setting: cell culture media ingredient used during meat production.

On to `CC(=O)OCOC(=O)CN(CC(=O)OCOC(C)=O)c1ccccc1OCCOc1ccccc1N(CC(=O)OCOC(C)=O)CC(=O)OCOC(C)=O` [BAPTA-AM], for which the “Reduction of ERKi-induced fusion” value in the data set on primary mouse myoblasts [1] (co-treatment with ERKi and BAPTA-AM (10 uM per FIG. 2B)) worked out at 81%. Besides, in the data set with primary mouse myoblasts [2], the “Differentiation (percent of MYOG positive nuclei) on co-treatment with ERKi” value was “without affecting early differentiation”.
Turning to `O=[Se]([O-])[O-].[Na+].[Na+]` [SODIUM SELENITE (ANHY)], the “Maximum Estimated Exposure per 100 g serving” value in [3] was 0.19 mg. Further, the “Intakes for a 65 kg adult below NOAEL” value in [4] (13 week rat NOAEL) is “are 133-fold below 13”. Besides, the “Risk Assessment Category” value in data set [5] (setting [9]) stood at 2.
As to `COc1ccc(S(=O)(=O)N(CCO)c2ccccc2CN(C)C/C=C/c2ccc(Cl)cc2)cc1` [KN93], the “Formation of polynucleated myotubes” value with primary mouse myoblasts [1] (co-treatment with ERKi and 5 uM KN93, bi- and tri-nucleated MyHC+ cells maintained) is on record as “suppressed”. Further, the “Cell cycle arrest (pH3 staining, p21 and p27 expression) compared to ERKi alone” value in the data set with primary mouse myoblasts [6] was “did not affect cell cycle arrest”. The “Differentiation (percent of MYOG positive nuclei) on co-treatment with ERKi” value in the data set with primary mouse myoblasts [2] was “remained unaffected”. Moreover, the “Cell motility compared to ERKi-treated cells” value in the data set with primary mouse myoblasts [7] is “unchanged”. For the same molecule, the “ERKi-induced elevation of Mymk expression” value with primary mouse myoblasts [8] (co-treatment with ERKi and CaMKIIi) was “partially suppressed”. Besides, in the data set with CaMKII, the “CaMKII activation (p-CaMKII T287)” value was “suppressed CaMKII activation”.
In the case of `CN1c2ccc([N+](=O)[O-])cc2N=C(c2ccc(C(=O)O)cc2)c2cc3c(cc21)C(C)(C)CCC3(C)C` [HX531], in the data set on primary mouse myoblasts [1] (co-treatment with ERKi and 20 uM HX531, 24 hours), the “Suppression of ERKi-induced fusion” value came to 47%. For the same molecule, the “Differentiation (percent of MYOG positive nuclei) on co-treatment with ERKi” value in the data set on primary mouse myoblasts [2] is given as “without affecting differentiation”. The “Ryr1 and Ryr3 mRNA expression” value in the data set with primary mouse myoblasts [8] (co-treatment with ERKi and RXRi, 24 hours post treatment) was “downregulation”.
`O=C(O)CCC(=O)O` [SUCCINIC ACID]: in data set [3], the “Maximum Estimated Exposure per 100 g serving” value is 200 mg. Besides, the “Intakes for a 65 kg adult below NOAEL” value in [4] (NOAEL from 2 year rat study) was “adult are 257-fold”.
For `O=C1CN(/N=C/c2ccc(-c3ccc([N+](=O)[O-])cc3)o2)C(O)=N1` [Dantrolene], in the data set with primary mouse myoblasts [1] (co-treatment with ERKi and 50 uM Dantrolene), the “Reduction of ERKi-induced fusion” value stood at 60%. Moreover, in the data set with primary mouse myoblasts [2], the “Differentiation (percent of MYOG positive nuclei) on co-treatment with ERKi” value was “without affecting differentiation”.
As for `NCCO` [MONOETHANOLAMINE], in data set [3], the “Maximum Estimated Exposure per 100 g serving” value is 160 mg. For the same molecule, the “Intakes for a 65 kg adult below NOAEL” value in data set [4] (rat NOAEL) is on record as “kg adult are 128 fold”. Also, in data set [5], the “Risk Assessment Category” value was found to be 2.
Turning to `O.O.O.O.O.O.O=C([O-])CCC(=O)[O-].[Na+].[Na+]` [SODIUM SUCCINATE-2Na 6H20], the “Maximum Estimated Exposure per 100 g serving” value in data set [3] is 40 mg. The “Intakes for a 65 kg adult below NOAEL” value in [4] (NOAEL from 2 year rat study) is “are >1000 fold below”. Further, the “Risk Assessment Category” value in data set [5] (setting [9]) worked out at 2.
